In patent US9550811B2, “Peptide scaffold design” (BIONOR IMMUNO AS, priority 2010, dated 2017):
Values joined by “and” are separate entries in the source; they are usually repeats but may differ in a detail not shown here. Equal values may be shown once.

Legend:
DC-cells = experiment: Cell penetration assay: staining for biotinylated peptides, dendritic cells gated as CD11c+; assay type: cell-based, human; settings: low concentration of peptides (208 uM)
Outline: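 Human PBMCs from one donor incubated 2 h at 37 °C with N- or C-terminally biotinylated peptides (5, 2.5, 1.25 mM; concentrations as added), then trypsinized, fixed/permeabilized and stained with streptavidin-APC and anti-CD11c. Flow cytometry GeoMean of peptide fluorescence in total cells and CD11c+ dendritic cells.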

[1] = test system: PBMC samples from HCV patients; experiment: Human IFN-gamma cytotoxic T-cell (CTL) response by ELISPOT assay; assay type: cell-based
Experimental: Human IFN-Gamma Cytotoxic T-Cell (CTL) Response by ELISPOT Assay
Briefly, at day 1, PBMC samples from HCV patients were incubated in flasks (430 000 PBMCs/cm2) for 2 h at 37° C., 5% CO2 in covering amount of culture media (RPMI 1640 Fisher Scientific; Cat No. PAAE15-039 supplemented with L-Glutamine, (MedProbe Cat. No. 13E17-605E, 10% Foetal Bovine serum (FBS), Fisher Scientific Cat. No. A15-101) and Penicillin/Streptomycin, (Fisher Acientific Cat. No. P11-010) in order to allow adherence of monocytes. Non-adherent cells were isolated, washed, and frozen in 10% V/V DMSO in FBS until further usage. Adherent cells were carefully washed with culture media, followed by incubation at 37° C. until day 3 in culture media containing 2 μg/ml final concentration of hrGM-CSF (Xiamen amoytop biotech co, cat no: 3004.9090.90) & 1 μg/ml hrIL-4 (Invitrogen, Cat no: PHC0043), and this procedure was then repeated at day 6. At day 7, cultured dendritic cells (5 000-10 000 per well) were added to ELISPOT (Millipore multiscreen HTS) plates coated with 0.5 μg/well anti-human γ Interferon together with thawed autologous non-adherent cells (200 000 per well), antigen samples (1-8 ug/ml final concentration for peptide antigens; 5 ug/ml final concentration for Concanavalin A (Sigma, Cat no: C7275) or PHA (Sigma, Cat no: L2769)) & anti-Anergy antibodies (0.03-0.05 ug/ml final concentration for both anti-PD-1 (eBioscience, cat no: 16-9989-82) & anti-PD-L1 (eBioscience, cat no: 16-5983-82)). Plates were incubated overnight and spots were developed according to manufacturer. Spots were read on ELISPOT reader (CTL-ImmunoSpot® S5 UV Analyzer).

| Sequence | Results on DC-cells (geomean peptide-fluorescence) (DC-cells; BC 16) | Results on DC-cells (geomean peptide-fluorescence) (DC-cells; BC43) | IFN-g ELISPOT (T-cell spots) ([1]; Patient A (HCV patient), listed as 310-51b) | IFN-g ELISPOT (T-cell spots) ([1]; Patient B (HCV patient), listed as 310-51b) | IFN-g ELISPOT (T-cell spots) ([1]; Patient C (HCV patient), listed as 310-51b) | IFN-g ELISPOT (T-cell spots) ([1]; Patient D (HCV patient), listed as 310-51b) | IFN-g ELISPOT (T-cell spots) ([1]; Patient A (HCV patient), listed as 310-42) | IFN-g ELISPOT (T-cell spots) ([1]; Patient D (HCV patient), listed as 310-42) | IFN-g ELISPOT (T-cell spots) ([1]; Patient A (HCV patient), listed as 310-42b) | IFN-g ELISPOT (T-cell spots) ([1]; Patient B (HCV patient), listed as 310-42b) | IFN-g ELISPOT (T-cell spots) ([1]; Patient D (HCV patient), listed as 310-42b) |
| --- | --- | --- | --- | --- | --- | --- | --- | --- | --- | --- | --- |
| RRGYIPLVGAPLGBRVARALAHGVRV [51b] | 7000 | 6082 | 45 and 40 | 50 and 85 | 45 and 75 | 9 and 13 |  |  |  |  |  |
| RRIRNLGRVIETLTGBRLZGYIPLIGA [compound 42] | 74920 | 65811 |  |  |  |  | 75 and 80 | 13 and 11 |  |  |  |
| RRSRNLGKVIDTLTCBRLMGYIPLVGA [42b] | 61968 | 19181 |  |  |  |  |  |  | 90 and 115 | 60 and 80 | 13 and 11 |
